Laboratory results reported in patent US20160304970A1, “GENE BIOMARKER TO DIAGNOSE METASTIC LIVER CANCER AND METHODS FOR TARGETING THE SAME” (University of Southern California, priority 2015, published 2016).
“And” between values parts separate entries of the source, which are not always exact repeats. Identical values can stand only once.

Tests used:
[1] = system: CD133 (+) Huh7 cells; assay: CD133 cell viability screening (luminescence, CellTiter-Glo); format: cell-based; details: Homo sapiens, Huh-7
Procedure: CD133(+) and CD133(−) Huh7 cells were freshly sorted using the MACS CD133 micro bead kit (Miltenyi Biotec, 130-050-801) and were seeded in 100 μl medium containing 5000 cells per well in a 96-well plate. Once the cells attached, the FDA approved drug library was added to each well to a final concentration of 20 μg/ml in duplicate. After incubation for 48 hours, the cell viability was determined by a luminescence assay. […] After 16 hours, 1 μl of a […] drug solution was individually added to the 96 wells, resulting in a 20 μg/ml final concentration for most compounds. After 48 hours, CellTiter-Glo® Reagent (G8233, Promega) was added and the luminescence signal was measured with an automated plate reader. The raw data for each well was background-corrected by DMSO control wells on the same plate.
Freshly sorted CD133 (+) Huh7 or mouse TICs were plated in 100 μl of medium containing 5000 cells per well in a 96-well plate. After 16 hours, 0.5 μl of a 2 μg/ml, 1 μg/ml, 0.2 μg/ml, 0.1 μg/ml, 0.02 μg/ml, or 0.01 μg/ml compound was added to each well in triplicate, resulting in a 10 μg/ml, 5 μg/ml, 1 μg/ml, 0.5 μg/ml, 0.1 μg/ml, and 0.05 μg/ml final concentration for most compounds, respectively. After 48 hours, the cells were either measured for cell viability by Cell-Glo® Reagent (Promega), or fixed with 1% PFA (paraformaldehyde) and stained with DAPI for high-throughput screening.

[2] = system: patient-derived TICs; assay: Subcutaneous xenograft of patient-derived TICs in NSG mice; format: in vivo, mouse; details: no SAHA, i.p.
Procedure: To establish prognostic biomarkers for the best combination chemotherapy, five different patient-derived TICs were tested for responses as xenografts in NSG mice for the best combination chemotherapy based on mutation/transcriptome subtypes. Anti-tumorigenic ability by ATRA+SAHA targeting TICs encapsulated with SAHA was validated (Table 3). […] As placebo treatment, solvent (DMSO) in an equal total volume (0.2 ml/mouse) was injected. Tumor growth kinetics was studied. Combination of ATRA with SAHA further inhibited the self-renewal abilities of TICs in vivo (FIG. 17E).

[3] = system: CD133 (+) Huh7 cells; assay: Tumor spheroid formation assay; format: cell-based, human; details: CD133 (+) group; ATRA 5 μg/ml, SAHA 0.5 μg/ml; 2 weeks
Procedure: Freshly sorted CD133(+)/(−) Huh7 cells were plated in a low binding culture plate (NUNC 145397) containing 100 cells per well in 100 μl of culture medium with ATRA (5 μg/ml), SAHA (0.5 μg/ml), or a combination of both. After 2 weeks, colony numbers were counted.

[4] = system: CD133 (+) Huh7 cells; assay: In vivo tumorigenicity, CD133 (+) Huh7 cells in NOG mice; design: species or system mouse
Procedure: The TUNEL staining was performed according to the manufacturer's instructions (4810-30-K, TREVIGEN). In brief, paraffin-embedded tumor sections from each group were de-paraffinized, re-hydrated, and washed twice in PBS. Samples were covered with Proteinase K solution for 30 minutes at room temperature and then washed two times in deionized water. Slides were immersed in quenching solution for 5 minutes at room temperature and then washed in PBS. Slides were incubated in TdT labeling buffer for 5 minutes, immersed with labeling reaction mix, and incubated at 37° C. for 1 hour in a humidity chamber. Samples were immersed in TdT stop buffer for 5 minutes and then washed twice in deionized water for 5 minutes each at room temperature. Samples were covered with Strep-HRP solution and incubated for 10 minutes at 37° C. and washed twice in PBS. Samples were incubated in DAB solution for 5 minutes and then washed in deionized water several times. The samples were counterstained with Methyl Green and mounted on slides for observation.
CD133 was conjugated to the terminal amine functionality on a polyethylene glycol block of polylactide-polyethylene glycol (PLA-PEG) as previously described (Swaminathan et al., 2013). PLGA (30 mg) was dissolved in 1 ml chloroform containing ATRA (6 mg). An oil-in-water emulsion was formed by emulsifying the polymer drug solution in 6 ml of 2.5% w/v aqueous PVA solution by sonication (Sonicator®XL, Misonix, N.Y.) for 5 minutes in an ice bath. The PLA-PEG-CD133 conjugate was dissolved in chloroform (8 mg/100 μl) and added to the oil-in-water emulsion with stirring. The emulsion was stirred for 18 hours at ambient conditions followed by 2 hours under vacuum to remove residual chloroform. Nanoparticles were recovered by ultracentrifugation (35,000 rpm for 35 minutes at 4° C.; OptimaTMLE-80K, Beckman, Palo Alta, Calif.) and washed three times with deionized water to remove excess PVA and unencapsulated drugs. The nanoparticle suspension was then lyophilized (Labconco, FreeZone 4.5, Kansas City, Mo.). Before injection, the lyophilized nanoparticles were re-dissolved in PBS and filtered with a 0.22 micron filter.
A half million freshly sorted CD133 (+) TICs were suspended in 100 μl of Matrigel™ (BD) and injected subcutaneously into NOD/Shi-scid/IL-2Rγ^null(NOG) mice, six mice per group. After the tumor volume reached 100 mm^3, animals received one intravenous dose of CD133-conjugated RA nanoparticle (5 μg/ml) and SAHA (0.5 μg/ml) daily. The animals were monitored regularly for tumor growth and survival every day. All animals work was performed according to national and international guidelines. Animal studies were based on a protocol approved by the Institutional Animal Care and Use Committee at University of Southern California.

[5] = NOG mice, CD133 (+) Huh7 tumors

CC1=C(/C=C/C(C)=C/C=C/C(C)=C/C(=O)O)C(C)(C)CCC1 [ATRA, all-trans retinoic acid]
viability at 20 µg/mL ([1]; 20 μg/ml, 48 hours): 41.4%
IC50 ([1]; CD133 killing effect, FIG. 44A): 4.06 µg/mL and 13.5 µM
anti-tumorigenic ability, % (animals/total) ([2]; ATRA 100 mg/m^2/day): 22% (7/32)
anti-tumorigenic ability, % (animals/total) ([2]; ATRA 150 mg/m^2/day): 19% (6/32)
reduction of colony numbers, tumor spheroid formation [3]: 83%
tumor growth ([4]; ATRA 5 μg/ml in CD133 antibody-conjugated nanoparticles, SAHA 0.5 μg/ml, after 4 days of treatment): did not reduce or even promote tumor growth
TUNEL staining of tumors [4, 5]: TUNEL-positive tumor cells
tumor morphology, hematoxylin and eosin stained sections [4, 5]: necrotic regions
